Experimental data from ChEMBL document CHEMBL1201862, “PubChem BioAssay data set” (2004).
Calls of active or inactive are those of the source.

Columns and labels:
[1] = molecular target: T1, Delta-type opioid receptor (Homo sapiens, UniProt P41143); test: HTS Image-Based Screen for Antagonists of the DOR Receptor. [Related pubchem assays (depositor defined):AID1777, AID1785, AID1786, AID2133]; assay type: functional
[2] = toxicity toward HepG2 liver cells – cell-based, plate reader, cherry-pick, antagonist series, cytotoxicity control, dose response (AID 743416); assay type: functional
[3] = Trypanosoma cruzi growth suppression in host cells – NIH3T3 host cells, beta-gal luminescence, confirmation (AID 2044); assay type: functional, cell-based;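 further: intracellular parasites grown in NIH/3T3 mouse fibroblasts as host cells; luminescent beta-galactosidase reporter signal from transgenic T. cruzi replicating inside host cells; inhibitors lower the luminescence signal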
[4] = molecular target: T2, Heat shock factor protein 1 (Mus musculus, UniProt P38532); test: enhancement of HSF1-driven luciferase signal – cell-based, NIH3T3, luminescence, dose retest, confirmation (AID 435004); assay type: functional;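 further: stress induced by proteasome inhibitor MG132 added 30 min after compound; luciferase reporter driven by HSF1 response element in NIH3T3 cells; actives raise luminescence as potentiators of the MG132 stress response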
T2 sequence (P38532 whole entry): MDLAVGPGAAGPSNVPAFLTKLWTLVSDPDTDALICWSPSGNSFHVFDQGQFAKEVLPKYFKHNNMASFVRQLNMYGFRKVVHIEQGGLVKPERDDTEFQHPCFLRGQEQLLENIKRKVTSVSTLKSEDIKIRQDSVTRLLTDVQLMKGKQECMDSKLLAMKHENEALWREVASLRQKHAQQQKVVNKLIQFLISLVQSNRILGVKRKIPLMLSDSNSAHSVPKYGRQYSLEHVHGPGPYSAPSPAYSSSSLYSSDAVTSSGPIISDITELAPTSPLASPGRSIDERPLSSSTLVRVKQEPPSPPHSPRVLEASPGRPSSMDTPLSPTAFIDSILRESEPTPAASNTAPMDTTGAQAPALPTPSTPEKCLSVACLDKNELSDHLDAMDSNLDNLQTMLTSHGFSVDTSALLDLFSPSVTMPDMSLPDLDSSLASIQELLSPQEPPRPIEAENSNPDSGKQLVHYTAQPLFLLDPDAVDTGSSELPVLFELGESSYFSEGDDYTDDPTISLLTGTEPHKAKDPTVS

[5] = reduced cellular PGC1a acetyl-lysine signal – cell-based, cherry-picked samples, dose response (AID 720514); assay type: functional;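 further: potency may reflect raised or lowered acetylation signal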
[6] = NIH3T3 cell viability loss – ATP luminescence, mouse fibroblasts, counter-screen, dose response (AID 2010); assay type: functional, cell-based;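 further: cells exposed to compound for about 90 hours before reading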
[7] = molecular target: T3, Kappa-type opioid receptor (Homo sapiens, UniProt P41145); assay type: functional
T3 sequence (P41145 whole entry): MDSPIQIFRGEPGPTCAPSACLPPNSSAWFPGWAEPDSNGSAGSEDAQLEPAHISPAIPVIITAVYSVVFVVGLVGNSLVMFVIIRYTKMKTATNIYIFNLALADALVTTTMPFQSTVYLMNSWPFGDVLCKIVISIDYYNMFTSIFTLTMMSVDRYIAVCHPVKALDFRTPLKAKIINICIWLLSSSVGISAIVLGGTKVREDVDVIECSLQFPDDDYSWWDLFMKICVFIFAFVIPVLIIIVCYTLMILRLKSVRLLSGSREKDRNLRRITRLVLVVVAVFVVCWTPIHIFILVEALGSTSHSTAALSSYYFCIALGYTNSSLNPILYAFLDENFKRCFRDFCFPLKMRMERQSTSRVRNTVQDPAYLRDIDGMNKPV

[8] = blockers of bursicon-stimulated LGR2 cAMP reporter – cell-based, HEK293, CRE-luciferase reporter, cherry pick, set 2, dose response (AID 743343); assay type: functional;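 further: transfected cells were stimulated with diluted bursicon conditioned medium after compound addition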
CHO = CHO cell viability loss, potency – luminescence, cytotoxicity control for TLR9-MyD88 binding inhibitor project, dose response (AID 588339); assay type: functional, cell-based, hamster; conditions: Cricetulus griseus;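 further: CHO cells stably coexpressing TLR9 and MyD88 fusions from primary screen; compound exposure lasted 48 hours before viability readout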
Paired box protein Pax-8 = Paired box protein Pax-8 (Homo sapiens, UniProt Q06710); test: PAX8 transcriptional activity inhibition in RMG-I – RMG-I cells, luciferase, cherry-pick, dose response (AID 687027); assay type: functional, cell-based;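 further: luciferase reporter driven by Pax8 target thyroperoxidase promoter measured by SteadyGlo luminescence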
Sequence of Paired box protein Pax-8 (Q06710 whole entry): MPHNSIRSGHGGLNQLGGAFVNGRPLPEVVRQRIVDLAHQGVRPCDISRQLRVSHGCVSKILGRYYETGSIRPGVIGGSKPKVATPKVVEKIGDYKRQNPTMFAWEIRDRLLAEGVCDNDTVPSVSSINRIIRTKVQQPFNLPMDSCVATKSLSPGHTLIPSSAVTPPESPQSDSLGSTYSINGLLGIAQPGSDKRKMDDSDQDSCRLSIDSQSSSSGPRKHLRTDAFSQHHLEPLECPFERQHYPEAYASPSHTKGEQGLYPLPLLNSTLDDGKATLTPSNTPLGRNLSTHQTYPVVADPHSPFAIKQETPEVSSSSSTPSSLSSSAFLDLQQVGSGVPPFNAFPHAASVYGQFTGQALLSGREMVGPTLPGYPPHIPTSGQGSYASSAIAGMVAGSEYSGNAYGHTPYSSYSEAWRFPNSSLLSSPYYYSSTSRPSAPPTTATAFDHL

Beta Lactamase = Beta Lactamase (Pseudomonas aeruginosa, UniProt Q932Y6); test: BLA reporter interference, concentration series – BLA reporter cells, FRET fluorescence, artefact control for TLR9-MyD88 binding inhibitor project, dose response (AID 588341); assay type: cell-based;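 further: cell based assay in CHO-K1 cells stably expressing beta-lactamase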
Sequence of Beta Lactamase (Q932Y6 whole entry): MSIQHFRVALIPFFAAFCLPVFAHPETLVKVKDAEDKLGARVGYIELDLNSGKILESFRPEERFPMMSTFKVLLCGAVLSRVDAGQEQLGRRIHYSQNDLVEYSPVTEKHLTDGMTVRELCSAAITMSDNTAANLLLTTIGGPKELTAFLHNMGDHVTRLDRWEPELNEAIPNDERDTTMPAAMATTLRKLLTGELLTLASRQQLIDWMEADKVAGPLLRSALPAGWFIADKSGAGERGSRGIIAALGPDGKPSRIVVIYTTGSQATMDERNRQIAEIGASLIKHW

[9] = molecular target: T3, Kappa-type opioid receptor; assay type: functional; remark: listed apart in the source
[10] = alpha-synuclein stem-loop luciferase translation blockers – H4 neuroglioma cells, luminescence, confirmation (AID 1988); assay type: functional, cell-based
[11] = blockade of melanocortin 4 receptor signaling – cell-based, plate reader, cherry pick, counter-screen for LGR2 antagonist project, dose response (AID 743444); assay type: functional;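 further: transfected HEK 293 cells stimulated with alpha-MSH peptide; potency of inhibitors of the alpha-MSH evoked signal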
[12] = luciferase reporter signal suppression in cells – H4 neuroglioma cells, luminescence, dose response (AID 1990); assay type: functional, cell-based
[13] = molecular target: T1, Delta-type opioid receptor; test: HTS Image-Based Screen for Agonists of the DOR Receptor. [Related pubchem assays (depositor defined):AID1777, AID1786, AID2133]; assay type: functional
Mu-type opioid receptor = Mu-type opioid receptor (Homo sapiens, UniProt P35372); test: HTS Image-Based Screen for Agonists of the MOR Receptor. [Related pubchem assays (depositor defined):AID1777, AID1785, AID1786, AID2133]; assay type: functional;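 further: imaging of beta-arrestin GFP recruitment into spots after receptor activation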
Sequence of Mu-type opioid receptor (P35372 whole entry): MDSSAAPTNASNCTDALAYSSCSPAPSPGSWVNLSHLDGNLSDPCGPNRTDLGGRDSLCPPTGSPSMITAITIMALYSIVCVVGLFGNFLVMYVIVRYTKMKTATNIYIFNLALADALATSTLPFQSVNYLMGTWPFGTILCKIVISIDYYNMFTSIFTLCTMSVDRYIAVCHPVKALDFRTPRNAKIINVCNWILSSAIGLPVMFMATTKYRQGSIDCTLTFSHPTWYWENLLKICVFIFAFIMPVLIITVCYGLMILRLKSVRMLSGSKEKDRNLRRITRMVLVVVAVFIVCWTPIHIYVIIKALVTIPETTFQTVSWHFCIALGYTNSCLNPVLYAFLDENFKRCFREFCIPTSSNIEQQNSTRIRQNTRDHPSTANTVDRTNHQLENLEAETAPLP

Beta-galactosidase = Beta-galactosidase (Escherichia coli, UniProt Q8VNN2); assay type: functional
Sequence of Beta-galactosidase (Q8VNN2 whole entry): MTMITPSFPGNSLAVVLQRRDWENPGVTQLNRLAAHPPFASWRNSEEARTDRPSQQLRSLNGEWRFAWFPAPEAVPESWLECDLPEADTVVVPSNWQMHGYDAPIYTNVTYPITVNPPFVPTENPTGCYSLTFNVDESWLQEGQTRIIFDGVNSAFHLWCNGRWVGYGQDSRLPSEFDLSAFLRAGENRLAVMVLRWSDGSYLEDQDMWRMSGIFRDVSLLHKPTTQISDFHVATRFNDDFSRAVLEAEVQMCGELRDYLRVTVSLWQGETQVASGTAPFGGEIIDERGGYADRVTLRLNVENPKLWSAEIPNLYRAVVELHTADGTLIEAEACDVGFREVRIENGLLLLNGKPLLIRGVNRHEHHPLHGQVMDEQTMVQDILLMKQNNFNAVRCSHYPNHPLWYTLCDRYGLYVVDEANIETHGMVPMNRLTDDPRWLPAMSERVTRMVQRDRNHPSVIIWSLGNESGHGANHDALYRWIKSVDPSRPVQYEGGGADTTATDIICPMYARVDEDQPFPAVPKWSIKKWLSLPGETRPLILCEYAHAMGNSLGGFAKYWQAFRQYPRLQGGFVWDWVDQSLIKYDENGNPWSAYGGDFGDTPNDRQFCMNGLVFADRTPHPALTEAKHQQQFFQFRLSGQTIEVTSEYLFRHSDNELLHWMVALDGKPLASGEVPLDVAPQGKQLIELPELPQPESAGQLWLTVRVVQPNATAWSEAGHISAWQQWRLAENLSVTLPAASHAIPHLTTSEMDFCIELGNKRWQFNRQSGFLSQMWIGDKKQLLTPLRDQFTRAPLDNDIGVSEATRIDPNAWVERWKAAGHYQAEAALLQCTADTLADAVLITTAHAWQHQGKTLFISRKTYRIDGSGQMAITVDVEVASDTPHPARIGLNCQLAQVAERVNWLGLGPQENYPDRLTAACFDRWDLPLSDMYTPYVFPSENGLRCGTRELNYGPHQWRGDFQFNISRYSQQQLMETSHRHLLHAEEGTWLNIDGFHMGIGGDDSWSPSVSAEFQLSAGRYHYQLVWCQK

[14] = general cell-killing toxicity readout – plate reader, dry powder samples, cytotoxicity control for PAX8 inhibitor project, dose response (AID 743021); assay type: functional, cell-based
[15] = viability loss in HEK293 cells – cell-based, plate reader, cherry-picked samples, cytotoxicity control, dose response (AID 743446); assay type: functional
[16] = A549 cell cytotoxicity, dose response, cytotoxicity control, plate reader, cherry-pick, antagonist series (AID 743412); assay type: functional, cell-based
INS1 = test: INS-1E survival protection against cytokine death – cell-based, luminescence, retest, dose response (AID 449756); assay type: functional; conditions: Rattus norvegicus;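 further: cell death triggered by IL-1 beta plus TNF-alpha plus IFN-gamma mixture; protective hits raise ATP signal compared with cytokine alone wells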
Exodeoxyribonuclease V = Exodeoxyribonuclease V (Escherichia coli (strain K12), UniProt P04993+P07648+P08394); test: RecBCD inhibition via phage-restricted bacterial growth – absorbance, V66 E. coli, mutant T4 phage, counter-screen for AddAB inhibitor project, dose response (AID 492957); assay type: functional, cell-based, Escherichia coli str. K-12 substr. MG1655
H9c2 = test: cells; assay type: functional, cell-based; conditions: Rattus norvegicus, H9c2, Myocardium
[17] = Counterscreen for AddAB inhibitors: absorbance-based bacterial cell-based high throughput dose response assay for inhibitors of bacterial viability. [Related pubchem assays (depositor defined):AID435030, AID449728, AID449731, AID488942, AID488955, AID488956]; assay type: functional
[18] = molecular target: Heat shock protein HSP 90-alpha (Homo sapiens, UniProt P07900); assay type: functional, organism-based
[19] = HGIII-sPLA2 enzyme inhibition potency – biochemical, QFRET, IC50, dose response (AID 743457);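 further: green fluorescence rise as the enzyme cleaves BODIPY PC-A2 in liposomes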
Cannabinoid receptor 1 [20] = molecular target: T4, Cannabinoid receptor 1 (Homo sapiens, UniProt P21554); test: SAR analysis of antagonists of the Cannabinoid Receptor 1 using an Image-Based Assay - Set 4. [Related pubchem assays (depositor defined):AID2013, AID2026]; assay type: functional
T4 sequence (P21554 whole entry): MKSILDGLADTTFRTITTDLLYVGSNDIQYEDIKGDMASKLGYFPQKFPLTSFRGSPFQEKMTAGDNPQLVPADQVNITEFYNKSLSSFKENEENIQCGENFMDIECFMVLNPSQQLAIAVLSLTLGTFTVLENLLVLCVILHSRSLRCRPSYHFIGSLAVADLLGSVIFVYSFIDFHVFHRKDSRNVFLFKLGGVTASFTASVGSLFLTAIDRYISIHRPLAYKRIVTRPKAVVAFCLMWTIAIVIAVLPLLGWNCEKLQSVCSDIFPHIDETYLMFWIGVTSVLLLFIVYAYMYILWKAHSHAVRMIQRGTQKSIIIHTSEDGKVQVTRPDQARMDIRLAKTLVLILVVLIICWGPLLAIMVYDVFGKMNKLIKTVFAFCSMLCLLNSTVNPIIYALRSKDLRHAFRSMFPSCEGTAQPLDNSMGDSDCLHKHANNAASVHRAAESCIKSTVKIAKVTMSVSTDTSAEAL

[21] = molecular target: T5, G-protein coupled receptor 35 (Homo sapiens, UniProt Q9HC97); test: SAR analysis of Antagonists of the GPR35 Receptor using an Image-Based Assay - Set 6. [Related pubchem assays (depositor defined):AID2013, AID2026]; assay type: functional
T5 sequence (Q9HC97 whole entry): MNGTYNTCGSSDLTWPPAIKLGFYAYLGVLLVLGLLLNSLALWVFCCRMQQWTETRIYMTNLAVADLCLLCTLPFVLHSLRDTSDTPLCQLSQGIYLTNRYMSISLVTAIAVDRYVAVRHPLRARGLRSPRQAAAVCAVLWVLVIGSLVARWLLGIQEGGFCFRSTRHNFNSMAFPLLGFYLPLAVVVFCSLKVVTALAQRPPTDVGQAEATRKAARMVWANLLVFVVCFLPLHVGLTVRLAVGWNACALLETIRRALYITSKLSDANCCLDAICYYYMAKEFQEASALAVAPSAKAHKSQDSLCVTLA

[22] = molecular target: T5, G-protein coupled receptor 35; test: SAR analysis of Agonists of the GPR35 Receptor using an Image-Based Assay - Set 4. [Related pubchem assays (depositor defined):AID2013, AID2026]; assay type: functional
[23] = molecular target: G-protein coupled receptor 55 (Homo sapiens, UniProt Q9Y2T6); test: SAR Analysis of Selective Antagonists of GPR55 using an Image-Based Assay - Set 4. [Related pubchem assays (depositor defined):AID2013, AID2026]; assay type: functional;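 further: antagonism of response to 5 µM lysophosphatidylinositol agonist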
Sequence of G-protein coupled receptor 55 (Q9Y2T6 whole entry): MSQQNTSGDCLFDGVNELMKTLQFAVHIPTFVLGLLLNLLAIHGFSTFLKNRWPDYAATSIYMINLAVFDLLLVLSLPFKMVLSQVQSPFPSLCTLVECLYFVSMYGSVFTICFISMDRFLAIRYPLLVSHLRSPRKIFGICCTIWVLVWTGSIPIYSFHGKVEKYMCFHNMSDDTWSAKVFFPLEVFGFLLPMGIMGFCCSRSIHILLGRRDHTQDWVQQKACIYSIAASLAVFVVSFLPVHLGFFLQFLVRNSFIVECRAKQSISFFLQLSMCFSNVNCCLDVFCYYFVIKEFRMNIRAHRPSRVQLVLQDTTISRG

Cannabinoid receptor 2 [24] = molecular target: T6, Cannabinoid receptor 2 (Homo sapiens, UniProt P34972); test: SAR analysis of agonists of the Cannabinoid Receptor 2 using an Image-Based Assay - Set 3. [Related pubchem assays (depositor defined):AID2013, AID2026]; assay type: functional
T6 sequence (P34972 whole entry): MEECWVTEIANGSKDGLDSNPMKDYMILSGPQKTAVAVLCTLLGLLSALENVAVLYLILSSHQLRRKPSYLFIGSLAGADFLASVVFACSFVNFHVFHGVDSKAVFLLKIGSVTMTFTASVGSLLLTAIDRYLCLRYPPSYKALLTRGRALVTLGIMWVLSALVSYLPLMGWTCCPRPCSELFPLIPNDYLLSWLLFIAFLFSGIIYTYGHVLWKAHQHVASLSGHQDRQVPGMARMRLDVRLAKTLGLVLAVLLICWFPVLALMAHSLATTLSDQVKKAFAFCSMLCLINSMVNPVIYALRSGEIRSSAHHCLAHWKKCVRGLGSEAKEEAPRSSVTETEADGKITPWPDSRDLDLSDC

Cannabinoid receptor 2 [25] = molecular target: T6, Cannabinoid receptor 2; test: SAR analysis of antagonists of the Cannabinoid Receptor 2 using an Image-Based Assay - Set 3. [Related pubchem assays (depositor defined):AID2013, AID2026]; assay type: functional
Cannabinoid receptor 1 [26] = molecular target: T4, Cannabinoid receptor 1; test: SAR analysis of agonists of the Cannabinoid Receptor 1 using an Image-Based Assay - Set 4. [Related pubchem assays (depositor defined):AID2013, AID2026]; assay type: functional
[27] = molecular target: T7, Tyrosine-protein phosphatase non-receptor type 22 (Homo sapiens, UniProt Q9Y2R2); assay type: functional
T7 sequence (Q9Y2R2 whole entry): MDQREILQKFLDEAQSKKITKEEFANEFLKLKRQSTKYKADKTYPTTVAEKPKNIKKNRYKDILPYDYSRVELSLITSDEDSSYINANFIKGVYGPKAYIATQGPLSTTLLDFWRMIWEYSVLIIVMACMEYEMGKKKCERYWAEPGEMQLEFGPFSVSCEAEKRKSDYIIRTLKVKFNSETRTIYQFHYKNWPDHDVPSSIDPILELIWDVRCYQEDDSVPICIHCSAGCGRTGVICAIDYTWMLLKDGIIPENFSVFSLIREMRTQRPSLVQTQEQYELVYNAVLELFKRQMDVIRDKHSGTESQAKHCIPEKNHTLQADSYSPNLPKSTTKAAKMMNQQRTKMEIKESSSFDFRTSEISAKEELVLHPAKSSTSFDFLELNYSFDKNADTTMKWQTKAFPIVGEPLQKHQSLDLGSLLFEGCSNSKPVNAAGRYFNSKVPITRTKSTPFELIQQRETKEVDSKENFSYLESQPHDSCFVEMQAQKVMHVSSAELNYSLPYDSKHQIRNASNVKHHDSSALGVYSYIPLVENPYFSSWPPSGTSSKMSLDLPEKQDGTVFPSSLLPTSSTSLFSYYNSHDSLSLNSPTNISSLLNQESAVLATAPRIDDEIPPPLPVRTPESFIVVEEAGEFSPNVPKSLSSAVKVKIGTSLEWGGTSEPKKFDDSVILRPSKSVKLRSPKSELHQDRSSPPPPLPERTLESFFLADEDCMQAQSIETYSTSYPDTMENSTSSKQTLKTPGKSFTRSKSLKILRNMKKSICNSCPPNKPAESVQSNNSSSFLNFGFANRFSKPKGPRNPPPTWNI

[28] = molecular target: T7, Tyrosine-protein phosphatase non-receptor type 22; assay type: functional; remark: listed apart in the source
[29] = molecular target: T8, Tyrosine-protein phosphatase non-receptor type 7 (Homo sapiens, UniProt P35236); assay type: functional
T8 sequence (P35236 whole entry): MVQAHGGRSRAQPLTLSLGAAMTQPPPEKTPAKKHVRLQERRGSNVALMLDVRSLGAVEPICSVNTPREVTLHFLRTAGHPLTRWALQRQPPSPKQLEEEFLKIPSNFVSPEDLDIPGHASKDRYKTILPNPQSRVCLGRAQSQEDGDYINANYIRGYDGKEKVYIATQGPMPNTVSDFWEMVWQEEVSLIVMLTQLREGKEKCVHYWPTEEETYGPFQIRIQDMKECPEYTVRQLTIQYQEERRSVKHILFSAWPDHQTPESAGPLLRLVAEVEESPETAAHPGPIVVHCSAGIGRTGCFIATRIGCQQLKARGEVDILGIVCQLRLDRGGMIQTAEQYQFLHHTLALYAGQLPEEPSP

[30] = molecular target: T3, Kappa-type opioid receptor; test: SAR analysis of small molecule agonists of the kappa opioid receptor via a luminescent beta-arrestin assay - Set 3. [Related pubchem assays (depositor defined):AID1777, AID1785, AID1786, AID1966, AID2133, AID2136, AID2284, AID2500]; assay type: functional

T1 sequence (P41143 whole entry): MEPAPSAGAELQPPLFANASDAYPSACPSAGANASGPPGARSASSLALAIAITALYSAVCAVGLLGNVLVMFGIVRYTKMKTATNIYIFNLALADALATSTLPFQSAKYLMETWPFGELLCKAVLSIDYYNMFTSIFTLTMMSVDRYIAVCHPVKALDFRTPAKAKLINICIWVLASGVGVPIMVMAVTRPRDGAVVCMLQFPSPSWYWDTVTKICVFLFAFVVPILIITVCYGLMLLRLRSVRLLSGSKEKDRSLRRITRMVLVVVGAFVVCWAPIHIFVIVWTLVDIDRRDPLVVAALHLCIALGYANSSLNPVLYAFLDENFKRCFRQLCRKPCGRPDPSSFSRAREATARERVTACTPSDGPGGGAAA

## S=c1sc2c(Cl)ncnc2n1-c1ccccc1
[1]
  IC50: 4.7 µM (active)
[2]
  AC50: 13.2 µM (active)
[3]
  EC50: 2.26 µM (active)
[4]
  EC50: 17.6 µM (active)
[5]
  AC50: 2.79 µM (active)
[6]
  EC50: 14.4 µM (active)
[7]
  IC50: 7.27 µM (active)
[8]
  AC50: 17.8 µM (active)
CHO
  IC50: 9.35 µM (active)
Paired box protein Pax-8
  AC50: 7.52 µM (active)
Beta Lactamase
  IC50: > 49.7 µM (inactive)
[9]
  IC50: 3.55 µM
[10]
  EC50: 7.71 µM (active)
[11]
  AC50: 24.5 µM (active)
[12]
  EC50: 8.14 µM (active)
[13]
  EC50: > 32 µM (inactive)
Mu-type opioid receptor
  EC50: > 32 µM (inactive)
Beta-galactosidase
  EC50: > 31.5 µM (inactive)
[14]
  AC50: 60.6 µM (active)
[15]
  AC50: 8.88 µM (active)
[16]
  AC50: 8.81 µM (active)

## Cc1onc(-c2ccccc2)c1C(=O)NC(=S)NNC(=O)c1ccccc1O
INS1
  AC50: 7.21 µM (active)
Exodeoxyribonuclease V
  IC50: > 119 µM (inactive)
H9c2
  IC50: > 79 µM (inactive)
[17]
  IC50: > 119 µM (inactive)
[18]
  AC50: 2.92 µM (active)
[19]
  IC50: > 122 µM (inactive)

## Cc1nc(N2CCN(C(=O)c3cccs3)CC2)c2c3c(sc2n1)CCCC3
Cannabinoid receptor 1 [20]
  IC50: 3.94 µM (active)
[21]
  IC50: > 32 µM (inactive)
[22]
  EC50: > 32 µM (inactive)
[23]
  IC50: 4.13 µM (active)
Cannabinoid receptor 2 [24]
  EC50: > 32 µM (inactive)
Cannabinoid receptor 2 [25]
  IC50: > 32 µM (inactive)
Cannabinoid receptor 1 [26]
  EC50: > 32 µM (inactive)

## COc1ccc(-n2cc3c(-c4cccc(Br)c4)nnc(C)c3n2)cc1
Cannabinoid receptor 1 [20]
  IC50: 0.946 µM (active)
[21]
  IC50: > 32 µM (inactive)
[22]
  EC50: > 32 µM (inactive)
[23]
  IC50: 8.04 µM (active)
Cannabinoid receptor 2 [24]
  EC50: > 32 µM (inactive)
Cannabinoid receptor 2 [25]
  IC50: 5.4 µM (active)
Cannabinoid receptor 1 [26]
  EC50: > 32 µM (inactive)

## NC(=O)Nc1ccccc1C(=O)NCCc1ccccc1
[27]
  IC50: > 79.4 µM (inactive)
[28]
  IC50: > 79.4 µM (inactive)
[29]
  IC50: > 79.4 µM (inactive)

## COc1ccc(N(CC(=O)NC(C)C)C(=O)CCC(=O)Nc2ccccn2)cc1
[27]
  IC50: > 79.4 µM (inactive)
[28]
  IC50: > 79.4 µM (inactive)
[29]
  IC50: > 79.4 µM (inactive)

## Brc1ccc(CSc2nnc(-c3ccccn3)n2Cc2ccccc2)cc1
[30]
  EC50: 4.06 µM (active)
